Where two headings read alike, the source gives them in different places.
What was measured:
[1] = biological target: T1, human 5-hydroxytryptamine-2C (h-5-HT2C) receptor (Homo sapiens, UniProt P28335); experiment: [125I]DOI binding to membranes of CHO cells expressing the h-5-HT2C receptor
T1 sequence (P28335 33-458): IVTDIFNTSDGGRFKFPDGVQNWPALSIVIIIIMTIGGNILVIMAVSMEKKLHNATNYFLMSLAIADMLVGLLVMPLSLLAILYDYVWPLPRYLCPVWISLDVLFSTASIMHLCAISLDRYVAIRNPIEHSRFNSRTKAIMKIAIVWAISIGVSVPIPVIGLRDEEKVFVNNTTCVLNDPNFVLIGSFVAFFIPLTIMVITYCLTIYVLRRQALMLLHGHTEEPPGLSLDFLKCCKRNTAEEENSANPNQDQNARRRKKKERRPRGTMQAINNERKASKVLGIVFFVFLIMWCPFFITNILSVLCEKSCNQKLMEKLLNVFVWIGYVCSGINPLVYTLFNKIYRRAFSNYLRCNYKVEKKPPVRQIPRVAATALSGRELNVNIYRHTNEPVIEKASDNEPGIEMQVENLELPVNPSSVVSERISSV

human 5-HT2C receptor = biological target: T2, human 5-HT2C receptor (Homo sapiens, UniProt P28335); experiment: 5-HT2C receptor-stimulated calcium mobilization (FLIPR) in CHO cells; format: cell-based; settings: for Emax: CHO, read-out: 5-HT2C Function Emax (%)
T2 sequence (P28335 33-458): T1 sequence (P28335 33-458)

[2] = 5-HT2c Affinity KI (nM), displacement of [125I]DOI, CHO cell membranes
[3] = calcium mobilization, CHO cells stably expressing human 5-HT2C, read-out: 5-HT2C Function EC50

Fc1ccc2c3c1[C@H]1CCCC[C@H]1N3CCNCC2 (single isomer, unassigned) [Example 32, (+)-(8bR*,12aR*)-8-Fluoro-2,3,4,5,8b,9,10,11,12,12a-decahydro-1H-[1,4]diazocino[7,8,1-jk]carbazole]
Ki [1, 2]: 2 nM

Fc1ccc2c3c1[C@H]1CCCC[C@H]1N3CCNCC2 (single isomer, unassigned) [Example 33, (−)-(8bR*,12aR*)-8-Fluoro-2,3,4,5,8b,9,10,11,12,12a-decahydro-1H-[1,4]diazocino[7,8,1-jk]carbazole]
Ki [1, 2]: 1.4 nM

Clc1ccc2c3c1[C@H]1CCCC[C@H]1N3CCNCC2 (single isomer, unassigned) [Example 42, (+)-(8bR*,12aR*)-8-Chloro-2,3,4,5,8b,9,10,11,12,12a-decahydro-1H-[1,4]diazocino[7,8,1-jk]carbazole]
Ki [1, 2]: 5.1 nM

Clc1ccc2c3c1[C@H]1CCCC[C@H]1N3CCNCC2 (single isomer, unassigned) [Example 43, (−)-(8bR*,12aR*)-8-Chloro-2,3,4,5,8b,9,10,11,12,12a-decahydro-1H-[1,4]diazocino[7,8,1-jk]carbazole]
Ki [1, 2]: 7 nM

c1cc2c3c(c1)[C@H]1CCC[C@H]1N3CCNCC2 (single isomer, unassigned) [Example 45, (+)-(8bR*,11aR*)-2,3,4,5,9,10,11,11a-Octahydro-1H,8bH-cyclopenta[b][1,4]diazocino[7,8,1-hi]indole]
Ki [1, 2]: 362 nM

c1cc2c3c(c1)[C@H]1CCC[C@H]1N3CCNCC2 (single isomer, unassigned) [Example 46, (−)-(8bR*,11aR*)-2,3,4,5,9,10,11,11a-Octahydro-1H,8bH-cyclopenta[b][1,4]diazocino[7,8,1-hi]indole]
Ki [1, 2]: 19 nM
EC50 (human 5-HT2C receptor): 38 nM
Emax (human 5-HT2C receptor): 70%

c1cc2c3c(c1)[C@H]1CCCC[C@H]1N3CCNCC2 (single isomer, unassigned) [Example 47, (+)-(8bR*,12aR*)-2,3,4,5,8b,9,10,11,12,12a-Decahydro-1H-[1,4]diazocino[7,8,1-jk]carbazole]
Ki [1, 2]: 135 nM

c1cc2c3c(c1)[C@H]1CCCC[C@H]1N3CCNCC2 (single isomer, unassigned) [Example 48, (−)-(8bR*,12aR*)-2,3,4,5,8b,9,10,11,12,12a-Decahydro-1H[1,4]diazocino[7,8,1-jk]carbazole]
Ki [1, 2]: 17 nM
EC50 (human 5-HT2C receptor): 42 nM
Emax (human 5-HT2C receptor): 70%

c1cc2c3c(c1)c1c(n3CCNCC2)CCC1 [Example 2, 2,3,4,5,10,11-Hexahydro-1H,9H-cyclopenta[b][1,4]diazocino[7,8,1-hi]indole]
Ki [1, 2]: 38 nM
EC50 (human 5-HT2C receptor): 20 nM
Emax (human 5-HT2C receptor): 80%

CN1CCc2cccc3c2N(CC1)C1CCCC31 (centres unmarked) [Example 3, 3-Methyl-2,3,4,5,9,10,11,11a-octahydro-1H,8bH-cyclopenta[b][1,4]diazocino[7,8,1-hi]indole]
Ki [1, 2]: 41 nM
EC50 (human 5-HT2C receptor): 37 nM
Emax (human 5-HT2C receptor): 50%

c1cc2c3c(c1)C1CCCC1N3CCNCC2 (centres unmarked) [Example 4, 2,3,4,5,9,10,11,11a-Octahydro-1H,8bH-cyclopenta[b][1,4]diazocino[7,8,1-hi]indole]
Ki [1, 2]: 31 nM
EC50 (human 5-HT2C receptor): 18 nM
Emax (human 5-HT2C receptor): 90%

c1cc2c3c(c1)c1c(n3CCNCC2)CCCC1 [Example 6, 2,3,4,5,9,10,11,12-Octahydro-1H-[1,4]diazocino[7,8,1-jk]carbazole]
Ki [1, 2]: 4 nM
EC50 (human 5-HT2C receptor): 6 nM
Emax (human 5-HT2C receptor): 80%

CN1CCc2cccc3c2N(CC1)C1CCCCC31 (centres unmarked) [Example 7, 3-Methyl-2,3,4,5,8b,9,10,11,12,12a-decahydro-1H-[1,4]diazocino[7,8,1-jk]carbazole]
Ki [1, 2]: 24 nM
EC50 (human 5-HT2C receptor): 74 nM
Emax (human 5-HT2C receptor): 60%

c1cc2c3c(c1)C1CCCCC1N3CCNCC2 (centres unmarked) [Example 8, 2,3,4,5,8b,9,10,11,12,12a-Decahydro-1H-[1,4]diazocino[7,8,1-jk]carbazole]
Ki [1, 2]: 22 nM
EC50 (human 5-HT2C receptor): 18 nM
Emax (human 5-HT2C receptor): 80%

CN1CCc2cccc3c4c(n(c23)CC1)CCCCC4 [Example 9, 3-Methyl-2,3,4,5,10,11,12,13-octahydro-1H,9H-cyclohepta[b][1,4]diazocino[7,8,1-hi]indole]
Ki [1, 2]: 19 nM
Emax (human 5-HT2C receptor): 25%
EC50 (human 5-HT2C receptor; [3]): 275 nM

c1cc2c3c(c1)c1c(n3CCNCC2)CCCCC1 [Example 10, 2,3,4,5,10,11,12,13-Octahydro-1H,9H-cyclohepta[b]1,4]diazocino[7,8,1-hi]indole]
Ki [1, 2]: 38 nM
Emax (human 5-HT2C receptor): 90%
EC50 (human 5-HT2C receptor; [3]): 156 nM

CN1CCc2c(Cl)ccc3c2N(CC1)C1CCCC31 (centres unmarked) [Example 15, 6-Chloro-3-Methyl-2,3,4,5,9,10,11,11a-octahydro-1H,8bH-cyclopenta[b][1,4]diazocino[7,8,1-hi]indole]
Ki ([1]; read-out: 5-HT2c Affinity KI): 131 nM

CN1CCc2c(Cl)ccc3c2N(CC1)C1CCCCCC31 (centres unmarked) [Example 16, 6-Chloro-3-methyl-2,3,4,5,9,10,11,12,13,13a-decahydro-1H,8bH-cyclohepta[b][1,4]diazocino[7,8,1-hi]indole]
Ki [1, 2]: 84 nM

Clc1ccc2c3c(n4c2c1CCNCC4)CCC3 [Example 17, 6-Chloro-2,3,4,5,10,11-hexahydro-1H,9H-cyclopenta[b][1,4]diazocino[7,8,1-hi]indole]
Ki ([1]; read-out: 5-HT2c Affinity KI): 156 nM

Clc1ccc2c3c(n4c2c1CCNCC4)CCCC3 [Example 18, 6-Chloro-2,3,4,5,9,10,11,12-octahydro-1H-[1,4]diazocino[7,8,1-jk]carbazole]
Ki [1, 2]: 83 nM

Clc1ccc2c3c(n4c2c1CCNCC4)CCCCC3 [Example 19, 6-Chloro-2,3,4,5,10,11,12,13-octahydro-1H,9H-cyclohepta[b][1,4]diazocino[7,8,1-hi]indole]
Ki ([1]; read-out: 5-HT2c Affinity KI): 4970 nM

Clc1ccc2c3c1CCNCCN3C1CCCC21 (centres unmarked) [Example 20, 6-Chloro-2,3,4,5,9,10,11,11a-octahydro-1H,8bH-cyclopenta[b][1,4]diazocino[7,8,1-hi]indole]
Ki ([1]; read-out: 5-HT2c Affinity KI): 111 nM

CCN1CCc2c(Cl)ccc3c2N(CC1)C1CCCC31 (centres unmarked) [Example 21, 6-Chloro-3-ethyl-2,3,4,5,9,10,11,11a-octahydro-1H,8bH-cyclopenta[b][1,4]diazocino[7,8,1-hi]indole]
Ki ([1]; read-out: 5-HT2c Affinity KI): 137 nM

Clc1ccc2c3c1CCNCCN3C1CCCCCC21 (centres unmarked) [Example 22, 6-Chloro-2,3,4,5,9,10,11,12,13,13a-decahydro-1H,8bH-cyclohepta[b][1,4]diazocino[7,8,1-hi]indole]
Ki [1, 2]: 50 nM
Emax (human 5-HT2C receptor): 60%
EC50 (human 5-HT2C receptor; [3]): 326 nM

CCN1CCc2c(Cl)ccc3c2N(CC1)C1CCCCC31 (centres unmarked) [Example 23, 6-Chloro-3-ethyl-2,3,4,5,8b,9,10,11,12,12a-decahydro-1H-[1,4]diazocino[7,8,1-jk]carbazole]
Ki ([1]; read-out: 5-HT2c Affinity KI): 116 nM

CN1CCc2ccc(F)c3c4c(n(c23)CC1)CCC4 [Example 24, 8-Fluoro-3-methyl-2,3,4,5,10,11-hexahydro-1H,9H-cyclopenta[b][1,4]diazocino[7,8,1-hi]indole]
Ki [1, 2]: 93 nM

CN1CCc2ccc(F)c3c4c(n(c23)CC1)CCCC4 [Example 25, 8-Fluoro-3-methyl-2,3,4,5,9,10,11,12-octahydro-1H-[1,4]diazocino[7,8,1-jk]carbazole]
Ki [1, 2]: 68 nM

CN1CCc2ccc(F)c3c2N(CC1)C1CCCC31 (centres unmarked) [Example 26, 8-Fluoro-3-methyl-2,3,4,5,9,10,11,11a-octahydro-1H,8bH-cyclopenta[b][1,4]diazocino[7,8,1-hi]indole]
Ki ([1]; read-out: 5-HT2c Affinity KI): 176 nM

CN1CCc2ccc(F)c3c2N(CC1)C1CCCCC31 (centres unmarked) [Example 27, 8-Fluoro-3-methyl-2,3,4,5,8b,9,10,11,12,12a-decahydro-1H-[1,4]diazocino[7,8,1-jk]carbazole]
Ki [1, 2]: 13 nM
Emax (human 5-HT2C receptor): 70%
EC50 (human 5-HT2C receptor; [3]): 261 nM

Fc1ccc2c3c1c1c(n3CCNCC2)CCC1 [Example 28, 8-Fluoro-2,3,4,5,10,11-hexahydro-1H,9H-cyclopenta[b][1,4]diazocino[7,8,1-hi]indole]
Ki [1, 2]: 12 nM
EC50 (human 5-HT2C receptor): 36 nM
Emax (human 5-HT2C receptor): 80%

Fc1ccc2c3c1c1c(n3CCNCC2)CCCC1 [Example 29, 8-Fluoro-2,3,4,5,9,10,11,12-octahydro-1H-[1,4]diazocino[7,8,1-jk]carbazole]
Ki [1, 2]: 1 nM
EC50 (human 5-HT2C receptor): 8 nM
Emax (human 5-HT2C receptor): 90%

Fc1ccc2c3c1C1CCCC1N3CCNCC2 (centres unmarked) [Example 30, 8-Fluoro-2,3,4,5,9,10,11,11a-octahydro-1H,8bH-cyclopenta[b][1,4]diazocino[7,8,1-hi]indole]
Ki [1, 2]: 16 nM
EC50 (human 5-HT2C receptor): 36 nM
Emax (human 5-HT2C receptor): 90%

Fc1ccc2c3c1C1CCCCC1N3CCNCC2 (centres unmarked) [Example 31, 8-Fluoro-2,3,4,5,8b,9,10,11,12,12a-decahydro-1H[1,4]diazocino[7,8,1-jk]carbazole]
Ki [1, 2]: 8 nM
EC50 (human 5-HT2C receptor): 87 nM
Emax (human 5-HT2C receptor): 60%

CN1CCc2cccc3c2N(CC1)C1CCSCC31 (centres unmarked) [Example 44, 3-Methyl-2,3,4,5,9,10,11,12-octahydro-1H,9H-[1,4]diazocino[7,8,1-hi]thiopyrano[4,3-b]indole]
Ki ([1]; read-out: 5-HT2c Affinity KI): 1720 nM

CSc1ccc2c(c1)C(N1CCN(C)CC1)Cc1ccccc1S2 (centres unmarked) [Methiothepin, reference compound]
Ki ([1]; reference compounds, displacement of [125I]DOI, CHO cell membranes, read-out: Ki (95% confidence interval)): 4.6 nM

COc1cc(CC(C)N)c(OC)cc1I (centres unmarked) [[^125I] DOI, reference compound]
Kd ([1]; saturation binding with increasing concentrations of [125I]DOI, read-out: dissociation constant, KD): 0.4 nM
